Test results reported in patent publication US20230357447A1, “TUMOR ACTIVATED MULTISPECIFIC ANTIBODIES FOR TARGETING CD28 AND PD-L1 AND METHODS OF USE THEREOF” (Janux Therapeutics, Inc., priority 2022, published 2023).

How the values were obtained:
[1] = tested on: anti-CD28 scFv (SEQ ID NO: 9); assay: Octet bio-layer interferometry kinetic binding of anti-CD28 scFv to peptides; set-up: species or system human; conditions: Octet RED96, 1:1 binding model
Protocol: (§1) Association and dissociation signals were recorded in real time and analyzed using a 1:1 binding model within the instrument software. Analysis using a 1:1 binding model enabled the calculation of the on and off rate constants as well as affinity, KD.
as §1

Ab-12 = assay: Octet bio-layer interferometry kinetic binding of Ab-12 to peptides; conditions: Octet RED96, 1:1 binding model; for Kd: biotinylated peptide loaded at 200 nM on streptavidin biosensors, Ab-12 100, 50, 25, 12.5 nM; for kdis: peptide on sensor, Ab-12 100-12.5 nM
Protocol: Briefly, streptavidin biosensors were loaded with biotinylated peptides and baselined in buffer. […] After a short association period, sensors were transferred into buffer and the dissociation of bound anti-CD28 scFv or Ab-12 was measured. The timing and steps of the experiment are shown in the accompanying table. Association and dissociation signals were recorded in real time and analyzed using a 1:1 binding model within the instrument software. Analysis using a 1:1 binding model enabled the calculation of the on and off rate constants as well as affinity, KD.

[2] = biotinylated peptide loaded on streptavidin biosensor, anti-CD28 scFv in solution
[3] = peptide on sensor, CD28 scFv 100-12.5 nM

| SMILES | kdis [1, 2] | further results |
| --- | --- | --- |
| CSCC[C@@H]1NC(=O)[C@H](CC(=O)O)NC(=O)[C@H](CCCNC(=N)N)NC(=O)[C@@H]2CCCN2C(=O)[C@@H](NC(=O)[C@H](Cc2c[nH]c3ccccc23)NC(=O)[C@H](CC(=O)O)NC(=O)[C@@H](N)CCSC)CSSC[C@@H](C(=O)N[C@@H](Cc2ccccc2)C(=O)N[C@@H](C)C(=O)O)NC(=O)[C@H](CCC(=O)O)NC(=O)[C@H](CC(=O)O)NC(=O)[C@H](Cc2c[nH]c3ccccc23)NC1=O [Peptide-42] | 0.00433 s⁻¹ |  |
| CSCC[C@H](N)C(=O)N[C@@H](CC(=O)O)C(=O)N[C@@H](Cc1c[nH]c2ccccc12)C(=O)N[C@H]1CSSC[C@@H](C(=O)N[C@@H](Cc2ccccc2)C(=O)N[C@@H](C)C(=O)O)NC(=O)[C@H](C(C)C)NC(=O)[C@H](Cc2c[nH]cn2)NC(=O)[C@H](Cc2c[nH]c3ccccc23)NC(=O)[C@H](CC(C)C)NC(=O)[C@H](Cc2ccc(O)cc2)NC(=O)[C@H](CCCNC(=N)N)NC(=O)[C@@H]2CCCN2C1=O [Peptide-48] | 0.00187 s⁻¹ |  |
| CSCC[C@H](N)C(=O)N[C@@H](CC(=O)O)C(=O)N[C@@H](Cc1c[nH]c2ccccc12)C(=O)N[C@H]1CSSC[C@@H](C(=O)N[C@@H](Cc2ccccc2)C(=O)N[C@@H](Cc2ccccc2)C(=O)O)NC(=O)[C@H](CC(=O)O)NC(=O)[C@H](C(C)C)NC(=O)[C@H](Cc2c[nH]c3ccccc23)NC(=O)[C@H](CCCNC(=N)N)NC(=O)[C@H](CCC(=O)O)NC(=O)[C@H](CCCNC(=N)N)NC(=O)[C@@H]2CCCN2C1=O [Peptide-9] | 0.0115 s⁻¹ | Kd (Ab-12): 18.8 nM; kdis (Ab-12): 0.00317 s⁻¹; kdis [1, 3]: 0.0123 s⁻¹ |
| CSCC[C@H](N)C(=O)N[C@@H](CC(=O)O)C(=O)N[C@@H](Cc1c[nH]c2ccccc12)C(=O)N[C@H]1CSSC[C@@H](C(=O)N[C@@H](Cc2ccccc2)C(=O)N[C@@H](CO)C(=O)O)NC(=O)[C@H](CC(C)C)NC(=O)[C@H](Cc2c[nH]cn2)NC(=O)[C@H](Cc2c[nH]c3ccccc23)NC(=O)[C@H](CC(C)C)NC(=O)[C@H](CC(=O)O)NC(=O)[C@H](CCCNC(=N)N)NC(=O)[C@@H]2CCCN2C1=O [Peptide-39] | 0.00265 s⁻¹ |  |
| CSCC[C@H](N)C(=O)N[C@@H](CC(=O)O)C(=O)N[C@@H](Cc1c[nH]c2ccccc12)C(=O)N[C@H]1CSSC[C@@H](C(=O)N[C@@H](Cc2ccccc2)C(=O)N[C@@H](C)C(=O)O)NC(=O)[C@H](CCC(=O)O)NC(=O)[C@H](Cc2c[nH]cn2)NC(=O)[C@H](Cc2c[nH]c3ccccc23)NC(=O)[C@H](CC(C)C)NC(=O)[C@H](CO)NC(=O)[C@H](CCCNC(=N)N)NC(=O)[C@@H]2CCCN2C1=O [Peptide-47] | 0.00201 s⁻¹ |  |
| CSCC[C@H](N)C(=O)N[C@@H](CC(=O)O)C(=O)N[C@@H](Cc1c[nH]c2ccccc12)C(=O)N[C@H]1CSSC[C@@H](C(=O)N[C@@H](Cc2ccccc2)C(=O)N[C@@H](Cc2ccccc2)C(=O)O)NC(=O)[C@H](CCC(=O)O)NC(=O)[C@H](CO)NC(=O)[C@H](Cc2c[nH]c3ccccc23)NC(=O)[C@H](CC(C)C)NC(=O)[C@H](CC(=O)O)NC(=O)[C@H](CCCNC(=N)N)NC(=O)[C@@H]2CCCN2C1=O [Peptide-40] | 0.0031 s⁻¹ |  |
| CC[C@H](C)[C@@H]1NC(=O)[C@H](CC(=O)O)NC(=O)[C@H](CCCCN)NC(=O)[C@@H]2CCCN2C(=O)[C@@H](NC(=O)[C@H](Cc2c[nH]c3ccccc23)NC(=O)[C@H](CC(N)=O)NC(=O)[C@@H](N)CCSC)CSSC[C@@H](C(=O)N[C@@H](Cc2ccccc2)C(=O)N[C@@H](CC(N)=O)C(=O)O)NC(=O)[C@H](CC(C)C)NC(=O)[C@H](Cc2ccc(O)cc2)NC(=O)[C@H](Cc2c[nH]c3ccccc23)NC1=O [Peptide-34] | 0.00684 s⁻¹ |  |
| CC[C@H](C)[C@@H]1NC(=O)[C@@H]2CCCN2C(=O)[C@@H](NC(=O)[C@H](Cc2c[nH]c3ccccc23)NC(=O)[C@H](CC(=O)O)NC(=O)[C@@H](N)CCSC)CSSC[C@@H](C(=O)N[C@@H](Cc2ccccc2)C(=O)N[C@@H](CC(N)=O)C(=O)O)NC(=O)[C@H](C(C)C)NC(=O)[C@H](Cc2c[nH]cn2)NC(=O)[C@H](Cc2c[nH]c3ccccc23)NC(=O)[C@H](CC(C)C)NC(=O)[C@H](Cc2c[nH]cn2)NC1=O [Peptide-32] | 0.00295 s⁻¹ |  |
| CSCC[C@H](N)C(=O)N[C@@H](CC(=O)O)C(=O)N[C@@H](Cc1c[nH]c2ccccc12)C(=O)N[C@H]1CSSC[C@@H](C(=O)N[C@@H](Cc2ccccc2)C(=O)N[C@@H](C)C(=O)O)NC(=O)[C@H](CCC(=O)O)NC(=O)[C@H](Cc2c[nH]cn2)NC(=O)[C@H](Cc2c[nH]c3ccccc23)NC(=O)[C@H](CC(C)C)NC(=O)[C@H](CC(=O)O)NC(=O)[C@H](CCCNC(=N)N)NC(=O)[C@@H]2CCCN2C1=O [Peptide-38] | 0.00277 s⁻¹ |  |
| CSCC[C@@H]1NC(=O)[C@H](Cc2c[nH]cn2)NC(=O)[C@H](CCCNC(=N)N)NC(=O)[C@@H]2CCCN2C(=O)[C@@H](NC(=O)[C@H](Cc2c[nH]c3ccccc23)NC(=O)[C@H](CC(=O)O)NC(=O)[C@@H](N)CCSC)CSSC[C@@H](C(=O)N[C@@H](Cc2ccccc2)C(=O)N[C@@H](C)C(=O)O)NC(=O)[C@H](Cc2ccc(O)cc2)NC(=O)[C@H](CC(N)=O)NC(=O)[C@H](Cc2c[nH]c3ccccc23)NC1=O [Peptide-46] | 0.00218 s⁻¹ |  |
| CC[C@H](C)[C@@H]1NC(=O)[C@@H]2CCCN2C(=O)[C@@H](NC(=O)[C@H](Cc2c[nH]c3ccccc23)NC(=O)[C@H](CC(=O)O)NC(=O)[C@@H](N)CCSC)CSSC[C@@H](C(=O)N[C@@H](Cc2ccccc2)C(=O)N[C@@H](CC(N)=O)C(=O)O)NC(=O)[C@H](CCC(=O)O)NC(=O)[C@H](CO)NC(=O)[C@H](Cc2c[nH]c3ccccc23)NC(=O)[C@H](CC(C)C)NC(=O)[C@H](Cc2ccc(O)cc2)NC1=O [Peptide-33] | 0.00153 s⁻¹ |  |
| CSCC[C@@H]1NC(=O)[C@H](Cc2ccccc2)NC(=O)[C@H](CCCNC(=N)N)NC(=O)[C@@H]2CCCN2C(=O)[C@@H](NC(=O)[C@H](Cc2c[nH]c3ccccc23)NC(=O)[C@H](CC(=O)O)NC(=O)[C@@H](N)CCSC)CSSC[C@@H](C(=O)N[C@@H](Cc2ccccc2)C(=O)N[C@@H](CC(N)=O)C(=O)O)NC(=O)[C@H](CCC(=O)O)NC(=O)[C@H](CC(=O)O)NC(=O)[C@H](Cc2c[nH]c3ccccc23)NC1=O [Peptide-45] | 0.00364 s⁻¹ |  |
| CSCC[C@@H]1NC(=O)[C@H](CC(=O)O)NC(=O)CNC(=O)[C@H](Cc2c[nH]c3ccccc23)NC(=O)[C@H](Cc2ccc(O)cc2)NC(=O)[C@H](Cc2c[nH]cn2)NC(=O)[C@@H](NC(=O)[C@H](Cc2ccc(O)cc2)NC(=O)CN)CSSC[C@@H](C(=O)NCC(=O)O)NC(=O)[C@H](Cc2c[nH]c3ccccc23)NC(=O)[C@H](CCSC)NC(=O)[C@H](C(C)C)NC1=O [Peptide-12] |  | Kd (Ab-12): 13.1 nM; kdis (Ab-12): 0.00127 s⁻¹; kdis [1, 3]: 0.00167 s⁻¹ |
| CSCC[C@@H]1NC(=O)[C@H](Cc2c[nH]cn2)NC(=O)[C@H](CC(C)C)NC(=O)[C@@H]2CCCN2C(=O)[C@@H](NC(=O)[C@H](Cc2c[nH]c3ccccc23)NC(=O)[C@H](CC(=O)O)NC(=O)[C@@H](N)CCSC)CSSC[C@@H](C(=O)N[C@@H](Cc2ccccc2)C(=O)N[C@@H](CO)C(=O)O)NC(=O)[C@H](CCC(=O)O)NC(=O)[C@H](Cc2c[nH]cn2)NC(=O)[C@H](Cc2c[nH]c3ccccc23)NC1=O [Peptide-35] | 0.00497 s⁻¹ |  |
| CSCC[C@@H]1NC(=O)[C@H](CC(=O)O)NC(=O)[C@H](CCCNC(=N)N)NC(=O)[C@@H]2CCCN2C(=O)[C@@H](NC(=O)[C@H](Cc2c[nH]c3ccccc23)NC(=O)[C@H](CC(=O)O)NC(=O)[C@@H](N)CCSC)CSSC[C@@H](C(=O)N[C@@H](Cc2ccccc2)C(=O)N[C@@H](C)C(=O)O)NC(=O)[C@H](CCC(=O)O)NC(=O)[C@H](CO)NC(=O)[C@H](Cc2c[nH]c3ccccc23)NC1=O [Peptide-43] | 0.0032 s⁻¹ |  |
| CSCC[C@H](N)C(=O)N[C@@H](CC(=O)O)C(=O)N[C@@H](Cc1c[nH]c2ccccc12)C(=O)N[C@H]1CSSC[C@@H](C(=O)N[C@@H](Cc2ccccc2)C(=O)N[C@@H](C)C(=O)O)NC(=O)[C@H](C(C)C)NC(=O)[C@H](CO)NC(=O)[C@H](Cc2c[nH]c3ccccc23)NC(=O)[C@H](CC(C)C)NC(=O)[C@H](Cc2c[nH]cn2)NC(=O)[C@H](C(C)C)NC(=O)[C@@H]2CCCN2C1=O [Peptide-50] | 0.00443 s⁻¹ |  |
